Assay results from US9637490B2, “Antifungal 5,6-dihydro-4-[(difluoroethyl)phenyl]-4H-pyrrolo[1,2-α][1,4]benzodiazepine and 4-(difluoroethyl)phenyl-6H-pyrrolo[1,2-α][1,4]benzodiazepine derivatives” (Janssen Pharmaceutica NV, priority 2010, dated 2017).

Tests used:
[1] = system: Sporothrix schenkii B62482; experiment: Antifungal activity in vitro (resazurin susceptibility screen), Inf. A; assay type: cell-based; conditions: Sporothrix, B62482, Sporothrix schenkii B62482; 27 °C, 4 days, resa time 24 hours
Experimental: (§1) The standard susceptibility screen was performed in 96-well plates (U-bottom, Greiner Bio-One). Serial dilutions (2-fold or 4-fold) of 20 mM compound stock solutions were made in 100% DMSO, followed by an intermediate dilution step in water. These serial dilutions (10 μl) were then spotted onto test-plates that could be stored in the dark at 4° C. for a maximum period of 2 weeks. An adequate broad dose-range was included with 64 μM as the highest in-test concentration. The culture medium RPMI-1640 was supplemented with L-glutamine, 2% glucose and buffered with 3-(N-morpholino)-propanesulfonic acid (MOPS) at pH 7.0±0.1. The different fungal species/isolates (Table 3a) were cryopreserved and 1/1000 diluted in medium just prior to use. A standard inoculum of 200 μl containing 10^3 colony-forming unit (cfu) was then added to each well. A positive control (100% growth=fungal culture without antifungal) and a negative control (0% growth=RPMI-MOPS medium) were included on each plate. Optimal incubation time and temperature were dependent on the fungal species and vary from 24 h for yeasts (37° C.) to one week or more for dermatophytes (27° C.). Inhibition of fungal growth was measured after adding 10 μl of 0.005% (w/v) resazurin (Sigma Aldrich) to each well, based on the principle that living cells convert the non-fluorescent blue resazurin into the pink and fluorescent resorufin, allowing fluorimetric reading (λhd ex 550 nm and μem 590 nm) after an additional incubation period (‘resa’ time mentioned in Table 3a). [table]

Microsporum canis B68128 = experiment: Antifungal activity in vitro (resazurin susceptibility screen), Inf. B; assay type: cell-based; conditions: Microsporum canis, B68128, Microsporum canis B68128; 27 °C, 9 days, resa time 24 hours
Experimental: as §1

[2] = system: Trichophyton rubrum B68183; experiment: Antifungal activity in vitro (resazurin susceptibility screen), Inf. C; assay type: cell-based; conditions: Trichophyton rubrum, B68183, Trichophyton rubrum B68183; 27 °C, 7 days, resa time 24 hours
Experimental: as §1

[3] = system: Candida parapsilosis B66126; experiment: Antifungal activity in vitro (resazurin susceptibility screen), Inf. D; assay type: cell-based; conditions: Lodderomyces parapsilosis, B66126, Candida parapsilosis B66126; 37 °C, 24 hours, resa time 4 hours
Experimental: as §1

[4] = system: Aspergillus fumigatus B42928; experiment: Antifungal activity in vitro (resazurin susceptibility screen), Inf. E; assay type: cell-based; conditions: Aspergillus fumigatus, B42928, Aspergillus fumigatus B42928; 27 °C, 48 hours, resa time 17 hours
Experimental: as §1

[5] = system: Cryptococcus neoformans B66663; experiment: Antifungal activity in vitro (resazurin susceptibility screen), Inf. F; assay type: cell-based; conditions: Cryptococcus neoformans, B66663, Cryptococcus neoformans B66663; 37 °C, 24 hours, resa time 4 hours
Experimental: as §1

[6] = system: Trichophyton mentagrophytes B70554; experiment: Antifungal activity in vitro (resazurin susceptibility screen), Inf. G; assay type: cell-based; conditions: Trichophyton mentagrophytes, B70554, Trichophyton mentagrophytes B70554; 27 °C, 7 days, resa time 24 hours
Experimental: as §1

[7] = system: Scedosporium apiospermum IHEM3817; experiment: Antifungal activity in vitro (resazurin susceptibility screen), Inf. H; assay type: cell-based; conditions: Scedosporium apiospermum, IHEM3817, Scedosporium apiospermum IHEM3817; 37 °C, 48 hours, resa time 17 hours
Experimental: as §1

[8] = system: Scedosporium prolificans IHEM21157; experiment: Antifungal activity in vitro (resazurin susceptibility screen), Inf. I; assay type: cell-based; conditions: Lomentospora prolificans, 37 °C, 48 hours, resa time 17 hours
Experimental: as §1

Rhizopus oryzae IHEM5223 = experiment: Antifungal activity in vitro (resazurin susceptibility screen), Inf. J; assay type: cell-based; conditions: Rhizopus arrhizus, 37 °C, 24 hours, resa time 6 hours
Experimental: as §1

[9] = system: Rhizomucor miehei IHEM13391; experiment: Antifungal activity in vitro (resazurin susceptibility screen), Inf. K; assay type: cell-based; conditions: Rhizomucor miehei, IHEM13391, Rhizomucor miehei IHEM13391; 37 °C, 48 hours, resa time 17 hours
Experimental: as §1

[10] = system: Mucor circinelloides IHEM21105; experiment: Antifungal activity in vitro (resazurin susceptibility screen), Inf. L; assay type: cell-based; conditions: 27 °C, 48 hours, resa time 17 hours
Experimental: as §1

| Structure (SMILES) | IC50 [1] | IC50 (Microsporum canis B68128) | IC50 [2] | IC50 [3] | IC50 [4] | IC50 [5] | IC50 [6] | IC50 [7] | IC50 [8] | IC50 (Rhizopus oryzae IHEM5223) | IC50 [9] | IC50 [10] | melting point |
| --- | --- | --- | --- | --- | --- | --- | --- | --- | --- | --- | --- | --- | --- |
| CC(F)(F)c1cc(C2=NCc3c(Cl)cc(F)cc3-n3cccc32)ccc1F [Compound 26, 7-chloro-4-[3-(1,1-difluoroethyl)-4-fluorophenyl]-9-fluoro-6H-pyrrolo[1,2-a][1,4]-benzodiazepine] | 10.2 µM | 0.468 µM | 0.468 µM | 3.8 µM | 0.589 µM | > 64.6 µM | 1.2 µM | 0.158 µM | 0.191 µM | > 64.6 µM | 13.5 µM | > 64.6 µM | 84.9 to 85.9 °C |
| CC(F)(F)c1ccc(C2=NCc3c(Cl)cc(F)cc3-n3cccc32)cc1F [Compound 31, 7-chloro-4-[4-(1,1-difluoroethyl)-3-fluorophenyl]-9-fluoro-6H-pyrrolo[1,2-a][1,4]-benzodiazepine] | 2.34 µM | 0.437 µM | 0.468 µM | 3.47 µM | 0.501 µM | 0.295 µM | 1.26 µM | 10.5 µM | 8.71 µM | > 64.6 µM | > 64.6 µM | > 64.6 µM | 162.5 to 164.8 °C |
| CC(F)(F)c1cc(C2=NCc3c(Cl)cc(Cl)cc3-n3cccc32)ccc1F [Compound 25, 7,9-dichloro-4-[3-(1,1-difluoroethyl)-4-fluorophenyl]-6H-pyrrolo[1,2-a][1,4]-benzodiazepine] | 14.1 µM | 1.58 µM | 1.26 µM | > 64.6 µM | 1.02 µM | > 64.6 µM | 2.19 µM | 0.407 µM | 0.501 µM | > 64.6 µM | > 64.6 µM | > 64.6 µM | 124.2 to 125.4 °C |
| CC(F)(F)c1ccc(C2=NCc3c(F)cccc3-n3cccc32)cc1F [Compound 30, 4-[4-(1,1-difluoroethyl)-3-fluorophenyl]-7-fluoro-6H-pyrrolo[1,2-a][1,4]benzodiazepine] | > 64.6 µM | 0.468 µM | 0.162 µM | 7.76 µM | 0.501 µM | 1.41 µM | 0.363 µM | 8.91 µM | 4.57 µM | > 64.6 µM | 12.3 µM | > 64.6 µM | 170.8 to 171.5 °C |
| Cc1ccc(Cl)c2c1CN=C(c1ccc(C(C)(F)F)cc1)c1cccn1-2 [Compound 28, 10-chloro-4-[4-(1,1-difluoroethyl)phenyl]-7-methyl-6H-pyrrolo[1,2-a][1,4]-benzodiazepine] | 28.2 µM | 14.1 µM | 7.41 µM | 45.7 µM | ≥ 64.6 µM | 16.6 µM | 26.9 µM | 0.708 µM | 2.29 µM | > 64.6 µM | 41.7 µM | > 64.6 µM | 139.3 to 141.2 °C |
| CC(F)(F)c1ccc(C2=NCc3cccc(Cl)c3-n3cccc32)cc1 [Compound 19, 10-chloro-4-[4-(1,1-difluoroethyl)phenyl]-6H-pyrrolo[1,2-a][1,4]benzodiazepine] | 2.82 µM | 2.04 µM | 0.214 µM | 13.2 µM | 2.04 µM | 1.62 µM | 0.646 µM | 2.34 µM | 0.513 µM | 9.77 µM | 14.5 µM | > 64.6 µM | 247.5 °C (dec.) |
| CC(F)(F)c1ccc(C2=NCc3c(Cl)cccc3-n3cccc32)cc1F [Compound 29, 7-chloro-4-[4-(1,1-difluoroethyl)-3-fluorophenyl]-6H-pyrrolo[1,2-a][1,4]benzodiazepine] | > 64.6 µM | 0.11 µM | 0.0851 µM | > 64.6 µM | 0.501 µM | > 64.6 µM | 0.191 µM | > 64.6 µM | > 64.6 µM | > 64.6 µM | > 64.6 µM | > 64.6 µM | 186.3 to 186.6 °C |
| CC(F)(F)c1cc(C2=NCc3c(F)cc(F)cc3-n3cccc32)ccc1F [Compound 23, 4-[3-(1,1-difluoroethyl)-4-fluorophenyl]-7,9-difluoro-6H-pyrrolo[1,2-a][1,4]-benzodiazepine] | 9.55 µM | 0.417 µM | 0.129 µM | 3.63 µM | 0.537 µM | > 64.6 µM | 0.794 µM | 0.182 µM | 0.1 µM | > 64.6 µM | > 64.6 µM | > 64.6 µM | 143.2 to 144.3 °C |
| CC(F)(F)c1ccc(C2=NCc3cc(Cl)cc(Cl)c3-n3cccc32)cc1 [Compound 6, 8,10-dichloro-4-[4-(1,1-difluoroethyl)phenyl]-6H-pyrrolo[1,2-a][1,4]benzodiazepine] | 2.63 µM | 17.4 µM | 5.89 µM | > 64.6 µM | 0.933 µM | 1.41 µM | 2.45 µM | > 64.6 µM | – | > 64.6 µM | > 64.6 µM | > 64.6 µM | 132.1 to 134.2 °C |
| Cc1cc(Cl)cc2c1CN=C(c1ccc(C(C)(F)F)cc1)c1cccn1-2 [Compound 16, 9-chloro-4-[4-(1,1-difluoroethyl)phenyl]-7-methyl-6H-pyrrolo[1,2-a][1,4]-benzodiazepine] | 3.8 µM | 2 µM | 0.617 µM | 10.7 µM | 1.7 µM | 0.724 µM | 1.66 µM | 10.2 µM | 1.2 µM | > 64.6 µM | > 64.6 µM | > 64.6 µM | 89.6 to 91.2 °C |
| CC(F)(F)c1ccc(C2=NCc3c(F)cc(F)cc3-n3cccc32)cc1F [Compound 33, 4-[4-(1,1-difluoroethyl)-3-fluorophenyl]-7,9-difluoro-6H-pyrrolo[1,2-a][1,4]-benzodiazepine] | 9.33 µM | 1.95 µM | 0.724 µM | 13.5 µM | 1.91 µM | 2.63 µM | 2.14 µM | 0.646 µM | 10.5 µM | > 64.6 µM | > 64.6 µM | > 64.6 µM | 158.2 to 161.3 °C |
| CC(F)(F)c1ccc(C2=NCc3c(F)cc(Cl)cc3-n3cccc32)cc1 [Compound 32, 9-chloro-4-[4-(1,1-difluoroethyl)phenyl]-7-fluoro-6H-pyrrolo[1,2-a][1,4]benzodiazepine] | 6.17 µM | 1.66 µM | 1.66 µM | 2.75 µM | 2 µM | 1.29 µM | 1.66 µM | > 64.6 µM | > 64.6 µM | > 64.6 µM | > 64.6 µM | > 64.6 µM | 145.3 to 147.4 °C |
